Source: US10213416B2, “Substituted benzoxazolone derivatives as acid ceramidase inhibitors, and their use as medicaments” (FONDAZIONE ISTITUTO ITALIANO DI TECNOLOGIA, priority 2014, dated 2019)
“Also recorded” adds a separate entry of the source.

Columns and labels:
[1] = biological target: human (hAC) acid ceramidase (Homo sapiens (Human), UniProt Q13510); assay: Fluorescent-based in vitro assay of acid ceramidase inhibition; format: biochemical; details: human acid ceramidase-enriched lysosomal lysate from HEK293 cells, fluorogenic probe 5 μM, pH 4.5
Sequence of human (hAC) acid ceramidase (Q13510 143-395): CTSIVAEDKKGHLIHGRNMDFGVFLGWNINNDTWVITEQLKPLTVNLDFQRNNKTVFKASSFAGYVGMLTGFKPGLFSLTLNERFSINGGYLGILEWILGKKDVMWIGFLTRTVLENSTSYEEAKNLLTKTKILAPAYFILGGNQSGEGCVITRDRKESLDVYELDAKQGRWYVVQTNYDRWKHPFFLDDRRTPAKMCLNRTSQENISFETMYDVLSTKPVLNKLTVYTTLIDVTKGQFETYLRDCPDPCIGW
Sequence of human (hAC) acid ceramidase (Q13510 22-142): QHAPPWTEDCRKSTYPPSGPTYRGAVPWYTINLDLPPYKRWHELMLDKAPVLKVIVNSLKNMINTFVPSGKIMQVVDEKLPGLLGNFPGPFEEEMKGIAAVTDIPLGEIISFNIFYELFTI
Excerpt: To evaluate the potency of the compounds towards acid ceramidase, a fluorescence-based in vitro assay previously described in literature (Bedia C et al., ChemBioChem, 2007, 8, 642-648) was implemented and optimized. This assay is based on a “fluorogenic probe” containing a coumarin group and a sphingoid base moiety (see figure below), which is not fluorescent in itself, but upon enzymatic cleavage by acid ceramidase followed by a chemical transformation liberates the fluorescent molecule umbelliferone (7-hydroxychromen-2-one). By quantifying the generation of umbelliferone using a fluorescence plate-reader, the level of enzymatic activity can be measured, whereby IC50 values of compounds that inhibit this activity can be generated.
Lysosomal lysate, enriched with acid ceramidase, was prepared from a cell line stably expressing human acid ceramidase. In the assay, the fluorogenic probe (or substrate) serves as a ceramide-analogue, which is recognized and hydrolyzed at the amide bond by acid ceramidase from the enriched lysate to yield the fatty acid and coumarinic aminodiol.
A lysosomal human acid ceramidase protein preparation was obtained from HEK293 cells stably expressing acid ceramidase suspended in 20 mM Tris HCl (pH 7.5) with 0.32 M sucrose. The cell solution was sonicated and centrifuged at 800×g for 15 min at 4° C. Supernatants were then centrifuged at 12,000×g for 30 min at 4° C. Pellets were re-suspended in phosphate-buffered saline (PBS) pH 7.4 and subjected to two freeze-thaw cycles at −80° C. The suspension was finally centrifuged at 105,000×g for 1 h at 4° C. and protein concentration was measured in the supernatant with bicinchinonic-acid based protein assay.
The assay was performed in Optiplate 96-wells black plates, with each reaction well containing a mixture of 25 mM sodium acetate buffer pH 4.5 and a fixed amount of protein (2 μg) in a volume of 85 μL. After 30 min of pre-incubation with test compounds (diluted 20× from DMSO stock solutions at different concentrations), the fluorogenic probe was added (diluted 20× from EtOH stock solution, final concentration 5 μM). After incubation for 3 h at 37° C., the reactions were stopped with 50 μl of methanol and 100 μl of a 2.5 mg/mL NaIO4 fresh solution in 100 mM Glycine/NaOH pH 10.6. The plate was incubated at 37° C. for 2 h in the dark and fluorescence intensities were measured at excitation/emission wavelengths of 360/446 nm. Negative control samples consisted of the same incubation mixture in the absence of protein extracts. The IC50 values or percent of inhibition, at the indicated concentration, of selected compounds described in the invention are reported in Table 2.

[2] = system: MAG-hydrolysing enzymes (monoacylglycerol lipase (MGL), hormone-sensitive lipase (HSL), endothelial lipase); assay: MAG-hydrolysing activity ex vivo in mouse tissues after systemic administration (LC-MS based assay); details: mice, 10 mg-kg-1 intraperitoneal, measured 3 h after injection; brain, liver, fat and heart
Procedure: (§1) Specifically, the compound of Example 1 was tested for its ability to inhibit the hydrolytic degradation of diacylglycerols (DAG) and monoacylglycerols (MAG) in live mice. DAG and MAG hydrolysis is catalyzed by multiple serine lipases, including diacylglycerol lipase (DGL), monoacylglycerol lipase (MGL), hormone-sensitive lipase (HSL), and endothelial lipase. Thus, by monitoring the effects of compound of Example 1 on MAG-hydrolysing activity as well as DAG and MAG levels ex vivo, we gain important information as to the ability of the compound to interfere with those lipases in a physiologically relevant setting.
Specifically, FIG. 1 evidences the effect of Example 1 or vehicle (DMSO) on MGL activity in brain, liver, fat and heart. MAG-hydrolysing activity was measured 3 h after intraperitoneal injection of compound of Example 1 (10 mg-kg-1). Results are expressed as mean±s.e.m. (n=5). […] The levels of MAGs were quantified after 3 hours after intraperitoneal injection of compound of Example 1 (10 mg-kg-1). Specifically, levels of 16:0 MAG, 18:0 MAG, 18:1 MAG, 22:4 MAG, 22:6 MAG were measured in the brain (a); levels of 16:0 MAG, 18:0 MAG, 18:1 MAG, 22:4 MAG were measured in the liver (b), in fat (c) and in the heart (d). Results are expressed as mean±s.e.m. (n=5).
Tissue was homogenized in ice-cold Tris-HCl (50 mM, pH7.5, 10 vol) containing sucrose (0.32 M). […]

[3] = system: levels of MAGs in brain, liver, fat and heart; assay: Levels of monoacylglycerols (MAG) in mouse tissues after systemic administration; format: in vivo; details: mice, 10 mg-kg-1 intraperitoneal, 3 hours after injection
Procedure: as §1
Specifically, FIG. 1 evidences the effect of Example 1 or vehicle (DMSO) on MGL activity in brain, liver, fat and heart. MAG-hydrolysing activity was measured 3 h after intraperitoneal injection of compound of Example 1 (10 mg-kg-1). Results are expressed as mean±s.e.m. (n=5). […] The levels of MAGs were quantified after 3 hours after intraperitoneal injection of compound of Example 1 (10 mg-kg-1). Specifically, levels of 16:0 MAG, 18:0 MAG, 18:1 MAG, 22:4 MAG, 22:6 MAG were measured in the brain (a); levels of 16:0 MAG, 18:0 MAG, 18:1 MAG, 22:4 MAG were measured in the liver (b), in fat (c) and in the heart (d). Results are expressed as mean±s.e.m. (n=5). […]

Row | Compound | IC50 [1] | MAG-hydrolysing activity (MGL activity) [2] | levels of the most representative MAGs (16:0, 18:0, 18:1, 22:4, 22:6 MAG) [3]
1 | O=C(NCCCCCCc1ccccc1)n1c(=O)oc2c(-c3ccc(F)cc3)cccc21 [Example 4, 7-(4-fluorophenyl)-2-oxo-N-(6-phenylhexyl)-1,3-benzoxazole-3-carboxamide] | 125 ± 79 nM |  | 
2 | O=C(NCCCCCc1ccccc1)n1c(=O)oc2c(-c3ccc(F)cc3)cc(Cl)cc21 [Example 14, 5-chloro-7-(4-fluorophenyl)-2-oxo-N-(5-phenylpentyl)-1,3-benzoxazole-3-carboxamide] | 37 nM |  | 
3 | COc1ccc(C(=O)c2ccc3c(c2)oc(=O)n3C(=O)NCCCCCc2ccccc2)cc1 [Example 6, 6-(4-methoxybenzoyl)-2-oxo-N-(5-phenylpentyl)-1,3-benzoxazole-3-carboxamide] | 26 ± 3 nM |  | 
4 | O=C(NCCCCCCc1ccccc1)n1c(=O)oc2ccc(-c3ccc(C(F)(F)F)cc3)cc21 [Example 3, 2-oxo-N-(6-phenylhexyl)-5-[4-(trifluoromethyl)phenyl]-1,3-benzoxazole-3-carboxamide] | 111 ± 30 nM |  | 
5 | O=C(c1ccc(F)cc1)c1cccc2c1oc(=O)n2C(=O)NCCCCCc1ccccc1 [Example 9, 7-(4-fluorobenzoyl)-2-oxo-N-(5-phenylpentyl)-1,3-benzoxazole-3-carboxamide] | 66 ± 15 nM |  | 
6 | COc1ccc(C(=O)c2ccc3oc(=O)n(C(=O)NCCCCCCc4ccccc4)c3c2)cc1 [Example 8, 5-(4-methoxybenzoyl)-2-oxo-N-(6-phenylhexyl)-1,3-benzoxazole-3-carboxamide] | 46 ± 31 nM |  | 
7 | CCCCOCCCNC(=O)n1c(=O)oc2cc(-c3ccc(F)cc3)ccc21 [Example 13, N-(3-butoxypropyl)-6-(4-fluorophenyl)-2-oxo-1,3-benzoxazole-3-carboxamide] | 132 ± 5 nM |  | 
8 | O=C(NCCCCSc1ccccc1)n1c(=O)oc2ccc(-c3ccc(F)cc3)cc21 [Example 15, 5-(4-fluorophenyl)-2-oxo-N-(4-phenylsulfanylbutyl)-1,3-benzoxazole-3-carboxamide] | 240 ± 58 nM |  | 
9 | O=C(NCCCCCc1ccccc1)n1c(=O)oc2cc(-c3ccc(F)cc3)ccc21 [Example 1, 6-(4-fluorophenyl)-2-oxo-N-(5-phenylpentyl)-1,3-benzoxazole-3-carboxamide] | 75 ± 20 nM | lack of effect; also recorded: did not cause inhibition; also recorded: no inhibitory activity | lack of effect; also recorded: remained unchanged
